In patent US20260256770A1, “COMPOSITIONS FOR AND METHODS OF TREATING HEREDITARY AORTOPATHIES” (Duke University, priority 2021, published 2026):
Entries after “also recorded” stand apart in the source; their conditions may differ.

Legend:
[1] = test system: FBN1 mutant MFS mouse; conditions: instead of 6-9 months in MFS mice; cited from earlier work
[2] = Accelerated MFS model: osmotically delivered angiotensin II infusion in FBN1 mutant MFS mouse; assay type: in vivo; conditions: angiotensin II-infused wild-type mice over the treatment period
From the text: (§1) The Examples provided infra use a novel murine MFS model of accelerated aortic aneurysm formation and cardiomyopathy. This MFS uses two well-characterized in vivo systems for studying aortopathy and cardiomyopathy, namely, the FBN1 mutant MFS mouse and osmotically delivered angiotensin II infusion. In this accelderated model, significant aortic aneurysms were observed as early as 10 days after angiotensin II pump implantation. […] Overwhelmingly, these deaths were a result of ascending aortic aneurysm rupture or dissection. […] Similarly, the accelerated MFS model described and used herein produced a dilated cardiomyopathy as early as 14 days after angiotensin II minipump installation, as determined by echocardiographic measurements of end-diastolic volume and ejection fraction, heart mass-to-body weight ratios, and hematoxylin and eosin tissue staining patterns consistent with the diagnosis. After 14 days of pump installation, 60% of surviving angiotensin II-infused MFS mice met a defined echocardiographic criteria for dilated cardiomyopathy.
(§2) To better understand these clinical differences, a MFS mouse model was generated to facilitate high throughput therapeutic screening. Using exogenous angiotensin II in MFS mice, ascending aortic aneurysms can be generated in 2 weeks instead of 6-9 months (Cavanaugh N B, et al. (2017) Ann Thorac Surg. 104:657-665). […] TRPC4 antagonists therefore represent an opportunity to replace surgery in MFS aortopathy.

[3] = test system: FBN1 mutant MFS mouse; test: as above; assay type: in vivo
From the text: as §1, §2

[4] = biological target: T1, TRPC4 (Mus musculus, UniProt Q9QUQ5); conditions: ML204 as reference for projected binding affinity of candidate inhibitors; cited from earlier work
T1 construct: expressed in transfected cells; host or cells: HEK293
T1 sequence (Q9QUQ5 1-890 isoform Q9QUQ5-2): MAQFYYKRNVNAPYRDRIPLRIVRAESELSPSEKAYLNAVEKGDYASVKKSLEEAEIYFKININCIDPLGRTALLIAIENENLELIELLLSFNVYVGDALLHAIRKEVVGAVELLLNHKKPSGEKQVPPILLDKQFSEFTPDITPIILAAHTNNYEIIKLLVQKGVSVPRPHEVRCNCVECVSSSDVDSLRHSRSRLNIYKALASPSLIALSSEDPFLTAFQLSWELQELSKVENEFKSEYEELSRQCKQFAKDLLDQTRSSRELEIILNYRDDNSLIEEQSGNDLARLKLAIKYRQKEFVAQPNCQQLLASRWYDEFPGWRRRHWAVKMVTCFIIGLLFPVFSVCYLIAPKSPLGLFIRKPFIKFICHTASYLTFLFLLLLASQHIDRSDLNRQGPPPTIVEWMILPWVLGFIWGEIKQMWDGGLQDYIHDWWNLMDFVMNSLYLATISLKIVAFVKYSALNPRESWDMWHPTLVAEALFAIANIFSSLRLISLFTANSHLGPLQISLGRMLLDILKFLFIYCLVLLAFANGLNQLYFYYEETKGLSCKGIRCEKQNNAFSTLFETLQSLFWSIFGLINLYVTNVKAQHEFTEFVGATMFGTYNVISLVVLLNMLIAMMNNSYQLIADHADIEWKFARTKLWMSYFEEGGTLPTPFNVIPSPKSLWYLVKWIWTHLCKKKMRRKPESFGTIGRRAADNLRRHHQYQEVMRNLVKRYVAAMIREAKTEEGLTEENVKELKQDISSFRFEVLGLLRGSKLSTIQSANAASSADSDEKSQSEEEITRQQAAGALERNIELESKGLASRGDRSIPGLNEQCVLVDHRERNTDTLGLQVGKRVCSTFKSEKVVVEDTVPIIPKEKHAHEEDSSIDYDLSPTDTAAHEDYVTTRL

[5] = test system: 129S MFS mice; conditions: 129S background, Mmp17/EGFR/p38MAPK/ERK effects; cited from earlier work
[6] = test system: MFS mice; conditions: cited from earlier work
[7] = test system: MFS patients; conditions: clinical; cited from earlier work
[8] = test system: accelerated MFS (aMFS) mice; conditions: aMFS aneurysms generated with exogenous angiotensin II; cited from earlier work

Molecule: angiotensin II [osmotically delivered exogenous angiotensin II used to accelerate aneurysm formation in MFS mice]
- time to generate ascending aortic aneurysms [1]: 2 weeks
- aneurysm formation [2]: did not form aneurysms
- time to significant aortic aneurysms after pump implantation ([3]; MFS mice): ≥ 10 days
- time to dilated cardiomyopathy after minipump installation ([3]; MFS mice, echocardiography): ≥ 14 days
- surviving mice meeting echocardiographic criteria for dilated cardiomyopathy ([3]; after 14 days of pump installation): 60%
- blood pressures ([3]; treatment group): not elevated

Molecule: Cc1cc(N2CCCCC2)nc2ccccc12 [ML204, 4-Methyl-2-(piperidin-1-yl) quinoline]
- IC50 [4]: 960 to 2600 nM

Molecule: C#Cc1cccc(Nc2ncnc3cc(OCCOC)c(OCCOC)cc23)c1 [Erolotinib]
- aggressive MFS phenotype [5]: rescue the aggressive MFS phenotype

Molecule: angiotensin II (DRVYIHPF; Angiotensin-2; UniProt P11859 25-32, looked up) [osmotically delivered exogenous angiotensin II used to accelerate aneurysm formation in MFS mice]
- deaths of treatment group ([3]; at 14 days after implant): one third
- deaths of treatment group ([3]; at 28 days after implant): more than half

Molecule: CCCCc1nc(Cl)c(CO)n1Cc1ccc(-c2ccccc2-c2nn[nH]n2)cc1 [Losartan]
- aneurysm growth ([6]; MFS mice started on therapy after aneurysms have formed / later in life): only attenuates aneurysm growth; also recorded: aneurysms continue to grow albeit at a slower rate; also recorded: had less of an effect
- aneurysm formation / development ([6]; MFS mice treated prior to aneurysm development / at an early age): blocked aneurysm formation; also recorded: blocks aneurysm development; also recorded: did not develop aneurysms
- aortic diameter growth ([6]; estimate used for power calculation, 0.1 mm standard deviation): 0.4 mm
- aneurysm progression [7]: only slowed aneurysm progression
- number of patients who ultimately required surgery [7]: did not affect
- response of aneurysms to therapy [8]: only partially respond
